As usually defined, the IC50 is the concentration that inhibits the measured activity by half. What is called EC50 is the concentration that produces a half-maximal response.

Structures are written as SMILES. Where two headings read alike, the source gives them in different places. Where only a bound is given, the exact number is not on record here.

Our source for the IC50 and EC50 values is patent publication US12325697B2 (Nimbus Clio, Inc., priority 2021, dated 2025).

Assay [1] has as its target Recombinant human Cbl-b (aa 36-427) (Homo sapiens (Human), UniProt Q13191). Nature of the assay: Cbl-b Biochemical Assay (TR-FRET). Conditions: read-out: TR-FRET hCbl-b IC50. A digest of the protocol:
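Two-step TR-FRET: 6 nM biotinylated Cbl-b preincubated 30-60 min with compound, then 60 min at RT with 1-2.5 nM Src-Zap70 and 0.5 mM ATP in HEPES pH 7.0 buffer, 1% DMSO. Stopped with 5 mM EDTA plus 100 nM UBE2D2-Ub-FL-BODIPY and 1 nM streptavidin-Tb, 60 min; 520 nm signal; IC50 from 4-parameter fit.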
A general note: In TR-FRET formats the signal depends on donor and acceptor labels being close together.

Assay [2] has as its system Jurkat (clone E6-1) cells, NFAT luciferase reporter. Kind of assay: Jurkat Reporter Assay (NFAT Luciferase). Particulars: Homo sapiens. In kind it is cell-based.
Assay [3] deals with Phospho-Zap70 (Y-319) in Jurkat wild-type (clone E6-1) cells. Nature of the assay: Jurkat pZAP70 HTRF Assay. It counts as cell-based. Particulars: Homo sapiens.
Setting [4] is: anti-CD3 stimulation, 6 hr, read-out: Jurkat NFAT EC50.
[5] abbreviates: anti-CD3 5 μg/ml, 3 hr, read-out: ZAP70 Jurkat EC50.

Chain of Recombinant human Cbl-b (aa 36-427) (Q13191 36-427): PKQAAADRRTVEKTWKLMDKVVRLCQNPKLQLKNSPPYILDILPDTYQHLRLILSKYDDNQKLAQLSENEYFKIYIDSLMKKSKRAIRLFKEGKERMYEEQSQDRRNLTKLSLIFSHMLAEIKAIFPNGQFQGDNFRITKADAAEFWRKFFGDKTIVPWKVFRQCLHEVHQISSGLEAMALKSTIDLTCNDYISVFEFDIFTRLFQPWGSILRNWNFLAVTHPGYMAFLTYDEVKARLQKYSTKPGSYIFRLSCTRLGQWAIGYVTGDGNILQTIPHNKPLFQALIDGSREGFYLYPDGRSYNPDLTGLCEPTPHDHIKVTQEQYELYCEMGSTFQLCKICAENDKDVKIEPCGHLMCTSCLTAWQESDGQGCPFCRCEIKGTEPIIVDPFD

`CCNc1cc(-c2ccc(C#N)cc2-c2nncn2C)cc(N2Cc3c(cc(COCC4(O)CCC4)cc3C(F)(F)F)C2=O)n1` [AEZ-1, 4-[2-(ethylamino)-6-(6-{[(1-hydroxycyclobutyl)methoxy]methyl}-1-oxo-4-(trifluoromethyl)-3H-isoindol-2-yl)pyridin-4-yl]-3-(4-methyl-1,2,4-triazol-3-yl) benzonitrile]: the IC50 in assay [1] is not above 0.2 µM. The values for the EC50 in assay [2] (setting [4]) and in assay [3] (setting [5]) were less than 0.2 µM and 0.2 to 1 µM, respectively.
Taken in the same sequence, the figures for `CCNc1cc(-c2ccc(C#N)cc2-c2nncn2C)cc(N2Cc3c(cc(CN[C@@H]4CCC[C@@H]4F)cc3C(F)(F)F)C2=O)n1` [AET-6, 4-[2-(Ethylamino)-6-[6-({[(1R,2S)-2-fluorocyclopentyl]amino}methyl)-1-oxo-4-(trifluoromethyl)-3H-isoindol-2-yl]pyridin-4-yl]-3-(4-methyl-1,2,4-triazol-3-yl) benzonitrile] were not above 0.2 µM, less than 0.2 µM and less than 0.2 µM.
The matching figures for `CCOc1cc(-c2ccc(C#N)cc2-c2nncn2C)cc(N2Cc3c(cc(CO)cc3C(F)(F)F)C2=O)n1` [AEW-2, 4-{2-Ethoxy-6-[6-(hydroxymethyl)-1-oxo-4-(trifluoromethyl)-3H-isoindol-2-yl]pyridin-4-yl}-3-(4-methyl-1,2,4-triazol-3-yl)benzonitrile]: not above 0.2 µM, less than 0.2 µM and 0.2 to 1 µM.
As for `Cn1cnnc1-c1cnn(C)c1-c1cc(C2CC2)nc(N2Cc3ccc(CNCC4(O)CCC4)cc3C2=O)c1` [AFI-1, 2-{6-Cyclopropyl-4-[2-methyl-4-(4-methyl-1,2,4-triazol-3-yl)pyrazol-3-yl]pyridin-2-yl}-6-({[(1-hydroxycyclobutyl)methyl]amino}methyl)-3H-isoindol-1-one], the IC50 in assay [1] is not above 0.2 µM. Further, the half-maximal effective concentration (EC50) in assay [2] (setting [4]) and in assay [3] (setting [5]) was less than 0.2 µM in each case.
Consider `COCCNCc1ccc2c(c1)C(=O)N(c1cc(-c3ccc(C#N)cc3-c3nncn3C)cc(C3CC3)n1)C2` [AGO-2, 4-(2-Cyclopropyl-6-(6-(((2-methoxyethyl)amino)methyl)-1-oxoisoindolin-2-yl)pyridin-4-yl)-3-(4-methyl-4H-1,2,4-triazol-3-yl)benzonitrile], for which the half-inhibitory concentration (IC50) in assay [1] is not above 0.2 µM. In addition, the half-maximal effective concentration (EC50) in assay [2] (setting [4]) and in assay [3] (setting [5]) was less than 0.2 µM in each case.
As for `CCNc1cc(-c2ccc(C#N)cc2-c2nncn2C)cc(N2Cc3c(cc(CN4CCC[C@@H](C)C4)cc3C(F)(F)F)C2=O)n1` [ADU-2, 4-[2-(Ethylamino)-6-(6-{[(3R)-3-methylpiperidin-1-yl]methyl}-1-oxo-4-(trifluoromethyl)-3H-isoindol-2-yl)pyridin-4-yl]-3-(4-methyl-1,2,4-triazol-3-yl) benzonitrile], the IC50 in assay [1] is not above 0.2 µM. Also, the concentration giving a half-maximal response (EC50) in assay [2] (6 h, read-out: Jurkat NFAT EC50 (μM)) was less than 0.2 µM; in assay [3] (3 h, read-out: ZAP70 Jurkat EC50 (μM)), 0.2 to 1 µM.
In the case of `CCNc1cc(-c2ccc(C#N)cc2-c2nncn2C)cc(N2Cc3c(cc(CNCCOC4CC4)cc3C(F)(F)F)C2=O)n1` [AGD-2, 4-[2-(6-{[(2-Cyclopropoxyethyl)amino]methyl}-1-oxo-4-(trifluoromethyl)-3H-isoindol-2-yl)-6-(ethylamino)pyridin-4-yl]-3-(4-methyl-1,2,4-triazol-3-yl)benzonitrile], the IC50 in assay [1] is not above 0.2 µM. The concentration for a half-maximal effect (EC50) in assay [2] (setting [4]) and in assay [3] (setting [5]) was less than 0.2 µM in each case.
On to `CCNc1cc(-c2ccc(C#N)cc2-c2nncn2C)cc(N2Cc3c(cc(CO)cc3C(F)(F)F)C2=O)n1` [ADX-2, 4-[2-(Ethylamino)-6-[6-(hydroxymethyl)-1-oxo-4-(trifluoromethyl)-3H-isoindol-2-yl]pyridin-4-yl]-3-(4-methyl-1,2,4-triazol-3-yl) benzonitrile], for which the IC50 in assay [1] is not above 0.2 µM. Besides, the EC50 is less than 0.2 µM in assay [2] (setting [4]) and 0.2 to 1 µM in assay [3] (setting [5]).
Taken in the same sequence, the figures for `CNCc1cc2c(c(C(F)(F)F)c1)CN(c1cc(-c3ccc(C#N)cc3-c3nncn3C)cc(C3CC3)n1)C2=O` [AGZ-1, 4-(2-Cyclopropyl-6-{6-[(methylamino)methyl]-1-oxo-4-(trifluoromethyl)-3H-isoindol-2-yl}pyridin-4-yl)-3-(4-methyl-1,2,4-triazol-3-yl)benzonitrile] were not above 0.2 µM, less than 0.2 µM and less than 0.2 µM.
The matching figures for `CCNc1cc(-c2ccc(F)cc2-c2nncn2C)cc(N2Cc3c(cc(CO)cc3C(F)(F)F)C2=O)n1` [AEF-1, 2-(6-(Ethylamino)-4-(4-fluoro-2-(4-methyl-4H-1,2,4-triazol-3-yl)phenyl)pyridin-2-yl)-6-(hydroxymethyl)-4-(trifluoromethyl)isoindolin-1-one]: not above 0.2 µM, less than 0.2 µM and less than 0.2 µM.
The matching figures for `CC(C)c1cc(-c2ccc(F)cc2-c2nncn2C)cc(N2Cc3ccc(CNCC4(O)CCC4)cc3C2=O)n1` [AFX-1, 2-{4-[4-Fluoro-2-(4-methyl-1,2,4-triazol-3-yl)phenyl]-6-isopropylpyridin-2-yl}-6-({[(1-hydroxycyclobutyl)methyl]amino}methyl)-3H-isoindol-1-one]: not above 0.2 µM, less than 0.2 µM and less than 0.2 µM.
Take `CCNc1cc(-c2ccc(C#N)cc2-c2nncn2C)cc(N2Cc3c(cc([C@@H](O)CN(C)C)cc3C(F)(F)F)C2=O)n1` (single isomer, unassigned) [AGK-1]: the 50% inhibitory concentration (IC50) in assay [1] is not above 0.2 µM. Further, the EC50 in assay [2] (setting [4]) was less than 0.2 µM; in assay [3] (setting [5]) it was 0.2 to 1 µM.
The matching figures for `Cn1cnnc1-c1cnn(C)c1-c1cc(C2CC2)nc(N2Cc3c(cc(CNCC4(O)CCC4)cc3C(F)(F)F)C2=O)c1` [ADR-3]: not above 0.2 µM, less than 0.2 µM and less than 0.2 µM.
The matching figures for `CCNc1cc(-c2ccc(F)cc2-c2nncn2C)cc(N2Cc3c(cc(COCC4(N)CCC4)cc3C(F)(F)F)C2=O)n1` [AGS-2]: not above 0.2 µM, less than 0.2 µM and less than 0.2 µM.
The matching figures for `Cn1cnnc1-c1cc(Cl)ccc1-c1cccc(N2Cc3ccc(CNCC4(O)CCC4)cc3C2=O)c1` [AGV-1, 2-[4′-Chloro-2′-(4-methyl-1,2,4-triazol-3-yl)-[1,1′-biphenyl]-3-yl]-6-({[(1-hydroxycyclobutyl)methyl]amino}methyl)-3H-isoindol-1-one]: not above 0.2 µM, less than 0.2 µM and less than 0.2 µM.
Consider `CCNc1cc(-c2c(-c3nncn3C)cnn2C)cc(N2Cc3c(cc(CNCC4(OC)CCC4)cc3C(F)(F)F)C2=O)n1` [AEQ-3, 2-[6-(Ethylamino)-4-[2-methyl-4-(4-methyl-1,2,4-triazol-3-yl)pyrazol-3-yl]pyridin-2-yl]-6-({[(1-methoxycyclobutyl)methyl]amino}methyl)-4-(trifluoromethyl)-3H-isoindol-1-one], for which the IC50 in assay [1] was not above 0.2 µM. Besides, the EC50 in assay [2] (setting [4]) and in assay [3] (setting [5]) was less than 0.2 µM throughout.
In the case of `CCNc1cc(-c2ccc(F)cc2-c2nncn2C)cc(N2Cc3c(cc(COCC4(O)CCC4)cc3C(F)(F)F)C2=O)n1` [AFF-2, 2-[6-(Ethylamino)-4-[4-fluoro-2-(4-methyl-1,2,4-triazol-3-yl)phenyl]pyridin-2-yl]-6-{1[(1-hydroxycyclobutyl)methoxy]methyl}-4-(trifluoromethyl)-3H-isoindol-1-one], in assay [1], the 50% inhibitory concentration (IC50) was not above 0.2 µM. Besides, the concentration giving a half-maximal response (EC50) in assay [2] (setting [4]) and in assay [3] (setting [5]) was less than 0.2 µM throughout.
Consider `CCNc1cc(-c2ccc(F)cc2-c2nncn2C)cc(N2Cc3c(cc(COCCO)cc3C(F)(F)F)C2=O)n1` [AGE-3, 2-[6-(Ethylamino)-4-[4-fluoro-2-(4-methyl-1,2,4-triazol-3-yl)phenyl]pyridin-2-yl]-6-[(2-hydroxyethoxy)methyl]-4-(trifluoromethyl)-3H-isoindol-1-one], for which, in assay [1], the IC50 was not above 0.2 µM. The EC50 in assay [2] (setting [4]) and in assay [3] (setting [5]) was less than 0.2 µM in each case.
Regarding `CCNc1cc(-c2c(-c3nncn3C)cnn2C)cc(N2Cc3c(cc(CN(C)CC4(O)CCC4)cc3C(F)(F)F)C2=O)n1` [AEJ-3, 2-(6-(Ethylamino)-4-(1-methyl-4-(4-methyl-4H-1,2,4-triazol-3-yl)-1H-pyrazol-5-yl)pyridin-2-yl)-6-((((1-hydroxycyclobutyl)methyl)(methyl)amino)methyl)-4-(trifluoromethyl)isoindolin-1-one], the IC50 in assay [1] was not above 0.2 µM. In addition, the concentration giving a half-maximal response (EC50) in assay [2] (setting [4]) and in assay [3] (setting [5]) was less than 0.2 µM each time.
On to `CCNc1cc(-c2c(-c3nncn3C)cnn2C)cc(N2Cc3c(cc(CO[C@@H]4CCC[C@@H]4O)cc3C(F)(F)F)C2=O)n1` (racemic) [ADB-1, (rac)-2-[6-(ethylamino)-4-[2-methyl-4-(4-methyl-1,2,4-triazol-3-yl)pyrazol-3-yl]pyridin-2-yl]-6-({[(1R,2S)-2-hydroxycyclopentyl]oxy}methyl)-4-(trifluoromethyl)-3H-isoindol-1-one], for which the IC50 in assay [1] was not above 0.2 µM. In addition, the figures for the EC50 in assay [2] (setting [4]) and in assay [3] (setting [5]) were 0.2 to 1 µM and 1 to 10 µM, respectively.
